Measured values published in US6946464B2, “Methods of treating and preventing a convulsive state” (Sepracor Inc., priority 1999, dated 2005).

Columns and labels:
[1] = tested on: non-selective muscarinic receptor; assay: Binding at the non-selective muscarinic receptor; details: rat cerebral cortex; tested at 10 μM in duplicate
Method: (§1) The binding of N-desmethylzopiclone was determined at the central benzodiazepine receptor and at the non-selective muscarinic receptor, both of which were isolated from rat cerebral cortex. Compounds were tested initially at 10 μM in duplicate, and if at least a 50% inhibition of specific binding was observed, they were tested further at 10 different concentrations in duplicate in order to obtain full competition curves. IC50 values (concentration required to inhibit 50% specific binding) were determined by nonlinear regression analysis of the curves, and inhibition constants (Ki) were also calculated.

[2] = target: central benzodiazepine receptor; assay: Binding at the central benzodiazepine receptor (competition of specific binding); details: rat cerebral cortex; for IC50: 10 concentrations in duplicate, nonlinear regression; for Ki: inhibition constant calculated from competition curves
Method: as §1

[3] = as reported by Goa and Heel, Drugs 32:48-65 (1986); cited from earlier work
[4] = healthy humans; cited from earlier work

SMILES	Muscarinic (% Inhibition) [1]	IC50 [2]	Ki [2]	reported pharmacological activity [3]	share of an oral dose of racemic zopiclone accounted for by the metabolite [4]
O=C(OC1c2nccnc2C(=O)N1c1ccc(Cl)cn1)N1CCNCC1 (racemic) [(±)-N-desmethylzopiclone]	10%	1100 nM	924 nM	–	–
O=C(O[C@H]1c2nccnc2C(=O)N1c1ccc(Cl)cn1)N1CCNCC1 [(+)-N-desmethylzopiclone]	19%	545 nM	458 nM	–	–
O=C(O[C@@H]1c2nccnc2C(=O)N1c1ccc(Cl)cn1)N1CCNCC1 [(−)-N-desmethylzopiclone]	24%	7090 nM	5960 nM	–	–
CN1C(=O)CN=C(c2ccccc2)c2cc(Cl)ccc21 [Diazepam, reference compound]	–	12 nM	10 nM	–	–
O=C(O[C@H]1c2nccnc2C(=O)N1c1ccc(Cl)cn1)N1CCNCC1 [N-desmethylzopiclone]	–	–	–	inactive	15%
C[N+]1([O-])CCN(C(=O)O[C@H]2c3nccnc3C(=O)N2c2ccc(Cl)cn2)CC1 [N-oxidezopiclone, reference compound]	–	–	–	less active than zopiclone	11%
